Results as given in ChEMBL document CHEMBL5360581, “Discovery of a novel dual functional phenylpyrazole-styryl hybrid that induces apoptotic and autophagic cell death in bladder cancer cells” (Eur J Med Chem, 2023).
Active and inactive are the calls of the source. The calls are words filed in the database; no cut-off is given here.

Assays:
SW-620 [1] = test: Antiproliferative activity against human SW620 cells assessed as reduction in cell viability at 20 uM measured for 72 hrs by MTT assay; assay type: functional, cell-based
A549 [2] = test: Antiproliferative activity against human A549 cells assessed as reduction in cell viability at 20 uM measured for 72 hrs by MTT assay; assay type: functional, cell-based
EJ-28 [3] = test: Antiproliferative activity against human EJ-28 cells assessed as reduction in cell viability at 20 uM measured for 72 hrs by MTT assay; assay type: functional, cell-based
HT-1080 [4] = test: Antiproliferative activity against human HT-1080 cells assessed as reduction in cell viability at 20 uM measured for 72 hrs by MTT assay; assay type: functional, cell-based
MCF7 [5] = test: Antiproliferative activity against human MCF7 cells assessed as reduction in cell viability at 20 uM measured for 72 hrs by MTT assay; assay type: functional, cell-based
SW-620 [6] = test: Cytotoxicity against human SW620 cells assessed inhibition of cell growth incubated for 72 hrs by MTT assay; assay type: functional, cell-based; details: SW-620, 72 h
A549 [7] = test: Cytotoxicity against human A549 cells assessed inhibition of cell growth incubated for 72 hrs by MTT assay; assay type: functional, cell-based; details: A549, 72 h
EJ-28 [8] = test: Cytotoxicity against human EJ-28 cells assessed inhibition of cell growth incubated for 72 hrs by MTT assay; assay type: functional, cell-based; details: EJ-28, 72 h
HT-1080 [9] = test: Cytotoxicity against human HT-1080 cells assessed inhibition of cell growth incubated for 72 hrs by MTT assay; assay type: functional, cell-based; details: HT-1080, 72 h
MCF7 [10] = test: Cytotoxicity against human MCF7 cells assessed inhibition of cell growth incubated for 72 hrs by MTT assay; assay type: functional, cell-based; details: MCF7, 72 h
[11] = Cytotoxicity against human NHDF cells assessed inhibition of cell growth incubated for 72 hrs by MTT assay; assay type: toxicity, cell-based
[12] = Selectivity index, ratio of IC50 for cytotoxicity against human NHDF cells to IC50 for cytotoxicity against human SW620 cells
[13] = Selectivity index, ratio of IC50 for cytotoxicity against human NHDF cells to IC50 for cytotoxicity against human A549 cells; assay type: toxicity, cell-based; details: NHDF cells and A549 cells, read-out: Ratio IC50
[14] = Selectivity index, ratio of IC50 for cytotoxicity against human NHDF cells to IC50 for cytotoxicity against human EJ-28 cells
[15] = Selectivity index, ratio of IC50 for cytotoxicity against human NHDF cells to IC50 for cytotoxicity against human HT-1080 cells
[16] = Selectivity index, ratio of IC50 for cytotoxicity against human NHDF cells to IC50 for cytotoxicity against human MCF7 cells; assay type: toxicity, cell-based; details: NHDF cells and MCF7 cells, read-out: Ratio IC50

Compound	Activity (SW-620 [1])	Activity (A549 [2])	Activity (EJ-28 [3])	Activity (HT-1080 [4])	Activity (MCF7 [5])	IC50 (SW-620 [6]) [µM]	IC50 (A549 [7]) [µM]	IC50 (EJ-28 [8]) [µM]	IC50 (HT-1080 [9]) [µM]	IC50 (MCF7 [10]) [µM]	IC50 at 72 h [11] [µM]	Ratio IC50 [12]	selectivity ratio [13]	Ratio IC50 [14]	Ratio IC50 [15]	selectivity ratio [16]
Oc1ccccc1-c1cc(/C=C/c2ccccc2Cl)nn1-c1ccccc1	Active	Active	Active	Active	Active	15.7	22.4	11.7	16.9	15.3	> 50	>2.2	> 2.2	>2.2	>2.2	> 2.2
Oc1ccccc1-c1cc(/C=C/c2cccs2)nn1-c1ccccc1	Active	Active	Active	Active	Active	11.9	18.5	14.3	12.8	9.1	19.2	1	1	1	1	1
COc1cc(/C=C/c2cc(-c3cc(Cl)ccc3O)n(-c3ccccc3)n2)cc(OC)c1OC	Active	Active	Active	Active	Active	4.4	9.4	10.1	8.9	5.9	39.6	3.9	3.9	3.9	3.9	3.9
Oc1ccc(Cl)cc1-c1cc(/C=C/c2ccc(Cl)c(Cl)c2)nn1-c1ccccc1	Active	Active	Active	Active	Active	19.2	20.2	4.4	17.8	15	40.2	2	2	2	2	2
Oc1ccccc1-c1cc(/C=C/c2ccc(Cl)s2)nn1-c1ccccc1	Active	Active	Active	Active	Active	16.3	21.1	13.6	17.3	14.5	18.5	0.9	1.1	1.1	1.1	1.1
COc1cccc(/C=C/c2cc(-c3cc(Cl)ccc3O)n(-c3ccccc3)n2)c1	Active	Active	Active	Active	Active	19.5	16.5	8.6	17.4	10.9	45.6	2.3	2.3	2.3	2.3	2.3
Oc1ccc(Cl)cc1-c1cc(/C=C/c2cccc(Cl)c2)nn1-c1ccccc1	Active	Active	Active	Active	Active	8.8	13.3	3.7	12.4	8.1	16.2	1.2	1.2	1.2	1.2	1.2
